In PubChem BioAssay AID328 (DTP/NCI, 2004) one finds T/C data, which are given here for 15 compounds.

This assay has as its system BDF1 mice, P388 leukemia ip, median survival T/C. Kind of assay: NCI In Vivo Anticancer Drug Screen. Data for tumor model P388 Leukemia (intraperitoneal) in B6D2F1 (BDF1) mice. The note with it: endpoint: median survival time, higher = longer survival. Put shortly:
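Steps: implant the tumour, treat one group with compound and another with vehicle, record survival, then divide treated by control.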

Where [1] appears, read: dose: 100.0 mg/kg/injection, schedule: Q01DX009 (ip), vehicle: Klucel (hydroxypropylcellulose) (HPC).
The mark [2] stands for this setting: dose: 200.0 mg/kg/injection, schedule: Q01DX009 (ip), vehicle: Klucel (hydroxypropylcellulose) (HPC).
Where [3] appears, read: dose: 400.0 mg/kg/injection, schedule: Q01DX009 (ip), vehicle: Klucel (hydroxypropylcellulose) (HPC).
The mark [4] stands for this setting: dose: 50.0 mg/kg/injection, schedule: Q01DX009 (ip), vehicle: saline with Tween-80.
[5] abbreviates: dose: 100.0 mg/kg/injection, schedule: Q01DX009 (ip), vehicle: saline with Tween-80.
Where [6] appears, read: dose: 200.0 mg/kg/injection, schedule: Q01DX009 (ip), vehicle: saline with Tween-80.
The mark [7] stands for this setting: dose: 50.0 mg/kg/injection, schedule: Q01DX009 (ip), vehicle: saline.
Setting [8] is: dose: 100.0 mg/kg/injection, schedule: Q01DX009 (ip), vehicle: saline.
[9] abbreviates: dose: 100.0 mg/kg/injection, schedule: Q04DX003 (ip), vehicle: Klucel (hydroxypropylcellulose) (HPC).
Setting [10] is: dose: 200.0 mg/kg/injection, schedule: Q04DX003 (ip), vehicle: Klucel (hydroxypropylcellulose) (HPC).
The mark [11] stands for this setting: dose: 400.0 mg/kg/injection, schedule: Q04DX003 (ip), vehicle: Klucel (hydroxypropylcellulose) (HPC).

The structures appear in SMILES notation. Several values for one entry are separate records, joined by “and”; a condition that tells them apart may be missing. Equal entries are not always repeated. Inconclusive results and toxic doses are left out.

On to `CC(C)(O)c1cnc(OCc2ccccc2)nc1OCc1ccccc1`, for which the T/C (dose: 100.0 mg/kg/injection, schedule: Q01DX001 (ip), vehicle: Klucel (hydroxypropylcellulose) (HPC)) is 109 % of control; the T/C under setting [1] was 95 % of control; the T/C (dose: 200.0 mg/kg/injection, schedule: Q01DX001 (ip), vehicle: Klucel (hydroxypropylcellulose) (HPC)) was 104 % of control; the T/C under setting [2] is 91 % of control; the T/C (dose: 400.0 mg/kg/injection, schedule: Q01DX001 (ip), vehicle: Klucel (hydroxypropylcellulose) (HPC)) is 95 % of control; the T/C under setting [3] was 86 % of control.

For the compound `COC(=O)c1cc(O)c(O)c(OC)c1`, the T/C was 111 % of control (dose: 25.0 mg/kg/injection, schedule: Q01DX009 (ip), vehicle: saline with Tween-80); 101 % of control under setting [4]; 86 % of control under setting [5]; 95 % of control under setting [6].

Consider `CC1(C)N=C(N)N=C(N)N1c1ccc(CCc2ccccc2)cc1`, for which the T/C reads like this: (dose: 22.0 mg/kg/injection, schedule: Q01DX009 (ip), vehicle: saline with Tween-80) 104 % of control; (dose: 33.0 mg/kg/injection, schedule: Q01DX009 (ip), vehicle: saline with Tween-80) 100 % of control; under setting [4], 112 % of control.

For `CN(C)CCC12CC(=O)CCC1C=Cc1ccc(O)c(O)c12` (stereo not drawn), the T/C is 100 % of control (dose: 25.0 mg/kg/injection, schedule: Q01DX009 (ip), vehicle: saline); 95 % of control under setting [7]; 91 % of control under setting [8].

Consider `Cc1cc(O)c(NCCCN(C)C)c2c(=O)c3ccccc3sc12`, for which the T/C is 108 % of control under setting [4] and 115 % of control under setting [6].

As for `COc1cc2c(c(OC)c1OC)-c1ccc(OC)c(=O)cc1[C@@H](NC(=O)C(F)(F)F)CC2`, the T/C was 155 % of control (dose: 0.09 mg/kg/injection, schedule: Q01DX009 (ip), vehicle: Klucel (hydroxypropylcellulose) (HPC)); 171 % of control (dose: 0.18 mg/kg/injection, schedule: Q01DX009 (ip), vehicle: Klucel (hydroxypropylcellulose) (HPC)); 245 % of control (dose: 0.39 mg/kg/injection, schedule: Q01DX009 (ip), vehicle: Klucel (hydroxypropylcellulose) (HPC)).

For the compound `C=CCC(CC)C(=O)O` (stereo not drawn), the T/C is 100 % of control under setting [7] and 104 % of control under setting [8].

`CCC(=O)Nc1ccc(C)cc1C`: the T/C by setting is: under setting [1], 104 % of control; under setting [9], 104 % of control; under setting [2], 100 % of control; under setting [10], 90 % of control; under setting [3], 95 % of control; under setting [11], 90 % of control.

On to `Nc1nc(N)c2nc(/C=C/c3ccc4c(c3)OCO4)cnc2n1`, for which the T/C is 88 % of control under setting [4], 88 % of control under setting [5] and 88 % of control under setting [6].

With `c1ccc(C2=NC(CCN3CCCCC3)(c3ccccc3)SC2CN2CCCCC2)cc1` (stereo not drawn), the T/C (dose: 50.0 mg/kg/injection, schedule: Q01DX005 (ip), vehicle: Klucel (hydroxypropylcellulose) (HPC)) is 101 % of control; the T/C (dose: 100.0 mg/kg/injection, schedule: Q01DX005 (ip), vehicle: Klucel (hydroxypropylcellulose) (HPC)) was 105 % of control; the T/C (dose: 200.0 mg/kg/injection, schedule: Q01DX005 (ip), vehicle: Klucel (hydroxypropylcellulose) (HPC)) is 104 % of control.

As to `CC=C(/C(=C/C)c1ccc(O)cc1)c1ccc(O)cc1`, the T/C is 100 % of control (dose: 66.0 mg/kg/injection, schedule: Q01DX009 (ip), vehicle: saline with Tween-80); 109 % of control under setting [5]; 118 % of control (dose: 150.0 mg/kg/injection, schedule: Q01DX009 (ip), vehicle: saline with Tween-80).

For the compound `N/C(=N\O)c1cccnc1`, the T/C is, setting by setting: (dose: 12.5 mg/kg/injection, schedule: Q01DX009 (ip), vehicle: water) 109 % of control; (dose: 25.0 mg/kg/injection, schedule: Q01DX009 (ip), vehicle: water) 102 % of control; (dose: 50.0 mg/kg/injection, schedule: Q01DX009 (ip), vehicle: water) 102 % of control; (dose: 50.0 mg/kg/injection, schedule: Q04DX003 (ip), vehicle: water) 101 % of control and 102 % of control; (dose: 100.0 mg/kg/injection, schedule: Q01DX009 (ip), vehicle: water) 102 % of control; (dose: 100.0 mg/kg/injection, schedule: Q04DX003 (ip), vehicle: water) 87 % of control and 105 % of control. Further, the T/C reads like this: (dose: 200.0 mg/kg/injection, schedule: Q01DX009 (ip), vehicle: water) 107 % of control; (dose: 200.0 mg/kg/injection, schedule: Q04DX003 (ip), vehicle: water) 100 % of control and 107 % of control; (dose: 300.0 mg/kg/injection, schedule: Q04DX003 (ip), vehicle: water) 108 % of control; (dose: 400.0 mg/kg/injection, schedule: Q01DX009 (ip), vehicle: water) 107 % of control.

`O=CN(O)CC(=O)O.[Cu]`: the T/C reads like this: (dose: 1.16 mg/kg/injection, schedule: Q04DX003 (ip), vehicle: saline) 95 % of control; (dose: 1.77 mg/kg/injection, schedule: Q04DX003 (ip), vehicle: saline) 95 % of control; (dose: 2.65 mg/kg/injection, schedule: Q04DX003 (ip), vehicle: saline) 90 % of control; (dose: 3.9 mg/kg/injection, schedule: Q04DX003 (ip), vehicle: saline) 90 % of control; (dose: 6.0 mg/kg/injection, schedule: Q04DX003 (ip), vehicle: saline) 100 % of control; (dose: 9.0 mg/kg/injection, schedule: Q04DX003 (ip), vehicle: saline) 113 % of control. The T/C runs as follows: (dose: 10.0 mg/kg/injection, schedule: Q01DX001 (ip), vehicle: saline) 100 % of control; (dose: 13.0 mg/kg/injection, schedule: Q04DX003 (ip), vehicle: saline) 104 % of control; (dose: 20.0 mg/kg/injection, schedule: Q01DX001 (ip), vehicle: saline) 118 % of control.

Turning to `Cc1ccc(Cl)cc1NC(=O)c1ccccc1C(=O)O`, the T/C runs as follows: under setting [9], 91 % of control; under setting [10], 95 % of control; under setting [11], 91 % of control.

For the compound `C=C(Br)COCC`, the T/C is, setting by setting: (dose: 5.78 mg/kg/injection, schedule: Q01DX001 (ip), vehicle: saline) 95 % of control; (dose: 11.56 mg/kg/injection, schedule: Q01DX001 (ip), vehicle: saline) 113 % of control; (dose: 13.75 mg/kg/injection, schedule: Q04DX003 (ip), vehicle: saline) 95 % of control; (dose: 23.12 mg/kg/injection, schedule: Q01DX001 (ip), vehicle: saline) 104 % of control; (dose: 27.5 mg/kg/injection, schedule: Q04DX003 (ip), vehicle: saline) 109 % of control; (dose: 35.0 mg/kg/injection, schedule: Q01DX009 (ip), vehicle: saline) 100 % of control. Besides, the T/C is 100 % of control (dose: 46.25 mg/kg/injection, schedule: Q01DX001 (ip), vehicle: saline); 109 % of control (dose: 55.0 mg/kg/injection, schedule: Q01DX009 (ip), vehicle: saline); 90 % of control (dose: 55.0 mg/kg/injection, schedule: Q04DX003 (ip), vehicle: saline); 110 % of control (dose: 80.0 mg/kg/injection, schedule: Q04DX003 (ip), vehicle: saline); 113 % of control (dose: 92.5 mg/kg/injection, schedule: Q01DX001 (ip), vehicle: saline); 100 % of control (dose: 125.0 mg/kg/injection, schedule: Q04DX003 (ip), vehicle: saline). In addition, the T/C (dose: 185.0 mg/kg/injection, schedule: Q04DX003 (ip), vehicle: saline) is 100 % of control.
